{"source": "patent US11364214B2", "about": "“Compositions and methods for treating eczema” (Dermala Inc., priority 2016, dated 2022)", "key": {"S. aureus (ATCC 29213) [1]": {"test_system": "S. aureus (ATCC 29213)", "assay": "Minimal inhibitory concentration (MIC) assay, microbroth dilution (CLSI M100-S22)", "type": "cell-based", "conditions": "Staphylococcus aureus, ATCC29213; no esterase added; 10% DMSO; 16 hours at 37° C.; first well showing ≥90% reduction in growth; read-out: MIC against S. aureus"}, "S. aureus (ATCC 29213) [2]": {"test_system": "S. aureus (ATCC 29213)", "assay": "Time-kill assay (bactericidal activity)", "type": "cell-based", "experimental": "This inoculum preparation was used for all experiments. Time-kill assay: A time-kill assay was performed to monitor the bactericidal activity of propionic acid (PA). […] Assays were performed in 100 μl volumes in 96-well plates and incubated at 37° C. in a sealed bag to prevent evaporation. […] Bacterial growth was determined by counting CFUs. […] The assay was setup and evaluated as described above."}, "S. aureus": {"test_system": "S. aureus", "conditions": "Shu et al. 2013; Wang et al. 2014; cited from earlier work"}}, "data": [{"compound": "CCC(=O)O", "note": "[PA, propionic acid]", "values": [{"measurement": "MIC", "setting": "S. aureus (ATCC 29213) [1]", "result": 15, "unit": "mM"}, {"measurement": "time after which bactericidal against S. aureus", "setting": "S. aureus (ATCC 29213) [2]; 4× the MIC (MIC 15 mM), sampled at 0, 1, 7, 24 hours, FIG. 2", "result": 7, "unit": "h"}, {"measurement": "time after which S. aureus is completely killed", "setting": "S. aureus (ATCC 29213) [2]; 4× the determined MIC, 0.2 mg/ml porcine liver esterase, sampled at 0, 1, 5, 24 hours, FIG. 4", "result": 5, "unit": "h"}, {"measurement": "growth of S. aureus (literature)", "setting": "S. aureus", "result": "inhibit growth of S. aureus"}]}]}
